For test [1], the system named is heregulin-mediated tyrosine phosphorylation in MDA-MB-453 cells. Briefly: Heregulin-dependent tyrosine phosphorylation assay, MDA-MB-453 cells, western blot. The class given is cell-based. As to conditions: Homo sapiens, 2 hours compound, 10 ng/mL heregulin 5 minutes, read-out: Heregulin-Medidated Tyrosine Phosphorylation IC50. Here is the method:
Proteins in the lysate were separated by polyacrylamide gel electrophoresis and electrophoretically transferred to nitrocellulose. […] Band intensities were determined with a laser densitometer.
(A western blot detects proteins with antibodies after separation by electrophoresis.)

For test [2], the system named is VEGF secretion from A431 cells. As to conditions: for VEGF secretion: 48 hours.
Test [3] deals with human epidermoid carcinoma, A431. Briefly: In vivo tumor inhibition assay, A431 tumor fragments s.c. in nude mice. As to conditions: for Tumor Growth Delay / Tumor Growth Inhibition: 15 consecutive days; for Tumor Growth Delay: isethionate salt in water, T-C to 750 mg; for Tumor Growth Inhibition: growth delay divided by number of treatments times 100%. How it is done:
The human epidermoid carcinoma, A431, was propagated in vivo by serial transplantation. This tumor model was selected for these studies because of its known dependence upon the EGF receptor for growth and its early stage responsiveness to monoclonal antibody therapy in vivo. In this experiment nude mice weighing 18-22 grams were implanted subcutaneously with 30 mg A431 tumor fragments in the region of the right axilla on Day 0. Tumors were allowed to grow to a mass of 100 to 150 mg, at which time the tumor bearing animals were randomized and distributed into treatment cages. […] The isethionate salts can be prepared by titrating the compounds into solution with 2 equivalents of isethionic acid. Treatment was based on average group weight. The control animals received water. Evaluation of the experiment was based on tumor growth delay, T-C, defined as the difference, in days, for the treated and control tumors to reach an evaluation size of 750 mg. Data can also be represented as the percentage of tumor growth inhibition, defined as the tumor growth delay divided by the number of treatments times 100%. […] Statistical analysis was performed using JMP for Macintosh (SAS Institute, Inc., Cary, N.C. ).

Like-named read-outs stand apart in the source and are kept apart here.

Broadly, the IC50 is the concentration needed to halve the response being measured.

In the case of `C=CC(=O)Nc1cc2c(Nc3ccc(F)c(Cl)c3)ncnc2cc1OCCCN1CCOCC1` [compound 1, N-[4-(3-chloro-4-fluoro-phenylamino)-7-(3-morpholin-4-yl-propoxy)-quinazolin-6-yl]-acrylamide], the IC50 in test [1] stood at 9 nM. Moreover, the VEGF secretion is 1490 ± 170 pg/10^5 cells ± SE in test [2] (10 ng/mL EGF stimulated, 0.1 μM compound); 560 ± 29 pg/10^5 cells ± SE in test [2] (10 ng/mL EGF stimulated, 0.5 μM compound); 1976 ± 37 pg/10^5 cells ± SE in test [2] (TGF-alpha stimulated, 0.1 μM compound); 766 ± 75 pg/10^5 cells ± SE in test [2] (TGF-alpha stimulated, 0.5 μM compound); 280 ± 41 pg/10^5 cells ± SE in test [2] (serum free media (basal), 0.1 μM compound); 250 ± 46 pg/10^5 cells ± SE in test [2] (serum free media (basal), 0.5 μM compound). Moreover, the “effect on EGF- or TGF-alpha stimulated VEGF secretion” value in test [2] (0.5 μM, in words) is “blocked”. Besides, the “effect on the basal level of VEGF secretion from A431 cells” value in test [2] (basal, in words) is recorded as “appeared to inhibit”. Moreover, the figures for the “Tumor Growth Delay” value in test [3] (5 mg/kg perorally) and in test [3] (18 mg/kg perorally) were 53.2 days and 41.3 days, respectively. Also, the “Tumor Growth Inhibition” value was 355% in test [3] (5 mg/kg perorally) and 275% in test [3] (18 mg/kg perorally). The “antitumor response T-C” value in test [3] (A431 tumors in vivo, dose not given) was 53 days.

Source of the values: patent US6344455B1 (Warner-Lambert Company, priority 1998, dated 2002).
